Experiment: head-to-tail macrolactamisation of side-chain-protected linear peptides (crude from 2-ClTrt resin, TFE cleavage); DEPBT (2-2.5 equiv), NEt3 (10-12 equiv), 24 h; AcOH quench, prep HPLC
Settings: MeCN with <1-10% DMSO (3i: 5% DMF in MeCN), 2.0 mM, 25.0 °C

CC[C@H](C)[C@@H]1NC(=O)[C@@H]2CCCN2C(=O)[C@H](CCCCNC(=O)OC(C)(C)C)NC(=O)[C@H](CSC(c2ccccc2)(c2ccccc2)c2ccccc2)NC(=O)[C@H](Cc2cn(C(=O)OC(C)(C)C)c3ccccc23)NC(=O)[C@H]([C@@H](C)OC(C)(C)C)NC(=O)[C@@H]2CCCN2C1=O [H-Trp(Boc)-Cys(Trt)-Lys(Boc)-Pro-Ile-Pro-Thr(tBu)-OH] gave a ring closure, isolated yield (from CC[C@H](C)[C@H](NC(=O)[C@@H]1CCCN1C(=O)[C@H](CCCCNC(=O)OC(C)(C)C)NC(=O)[C@H](CSC(c1ccccc1)(c1ccccc1)c1ccccc1)NC(=O)[C@@H](N)Cc1cn(C(=O)OC(C)(C)C)c2ccccc12)C(=O)N1CCC[C@H]1C(=O)N[C@H](C(=O)O)[C@@H](C)OC(C)(C)C, 21-membered ring, 24.0 h) of 12%.

Work on CC(C)C[C@@H]1NC(=O)[C@H](CC(C)C)NC(=O)[C@H](CC(=O)NC(c2ccccc2)(c2ccccc2)c2ccccc2)NC(=O)[C@@H]2CCCN2C(=O)[C@@H]2CCCN2C(=O)[C@H](CSC(c2ccccc2)(c2ccccc2)c2ccccc2)NC(=O)[C@H](CC(C)C)NC(=O)[C@H](CCC(=O)OC(C)(C)C)NC1=O [H-Glu(OtBu)-Leu-Cys(Trt)-Pro-Pro-Asn(Trt)-Leu-Leu-OH] yielded a ring closure, isolated yield (from CC(C)C[C@H](NC(=O)[C@H](CC(C)C)NC(=O)[C@H](CC(=O)NC(c1ccccc1)(c1ccccc1)c1ccccc1)NC(=O)[C@@H]1CCCN1C(=O)[C@@H]1CCCN1C(=O)[C@H](CSC(c1ccccc1)(c1ccccc1)c1ccccc1)NC(=O)[C@H](CC(C)C)NC(=O)[C@@H](N)CCC(=O)OC(C)(C)C)C(=O)O, 24-membered ring, 24.0 h) of 26%.

For CC[C@H](C)[C@@H]1NC(=O)[C@H](CSC(c2ccccc2)(c2ccccc2)c2ccccc2)NC(=O)[C@@H]2CCCN2C(=O)[C@H](CCCCNC(=O)OC(C)(C)C)NC(=O)[C@H](COC(C)(C)C)NC(=O)[C@H](CCCCNC(=O)OC(C)(C)C)NC(=O)[C@H](CCCCNC(=O)OC(C)(C)C)NC(=O)[C@H](Cc2ccccc2)NC1=O, the ring closure, isolated yield (from CC[C@H](C)[C@H](NC(=O)[C@H](CSC(c1ccccc1)(c1ccccc1)c1ccccc1)NC(=O)[C@@H]1CCCN1C(=O)[C@H](CCCCNC(=O)OC(C)(C)C)NC(=O)[C@H](COC(C)(C)C)NC(=O)[C@@H](N)CCCCNC(=O)OC(C)(C)C)C(=O)N[C@@H](Cc1ccccc1)C(=O)N[C@@H](CCCCNC(=O)OC(C)(C)C)C(=O)O, 24-membered ring, 24.0 h) was 36%.

With CC[C@H](C)[C@@H]1NC(=O)[C@H](Cc2cn(C(=O)OC(C)(C)C)c3ccccc23)NC(=O)[C@@H]2CCCN2C(=O)[C@H](CSC(c2ccccc2)(c2ccccc2)c2ccccc2)NC(=O)[C@@H]2CCCN2C(=O)[C@H](CCCCNC(=O)OC(C)(C)C)NC(=O)[C@H]([C@@H](C)OC(C)(C)C)NC1=O [H-Thr(tBu)-Lys(Boc)-Pro-Cys(Trt)-Pro-Trp(Boc)-Ile-OH] the ring closure, isolated yield (from CC[C@H](C)[C@H](NC(=O)[C@H](Cc1cn(C(=O)OC(C)(C)C)c2ccccc12)NC(=O)[C@@H]1CCCN1C(=O)[C@H](CSC(c1ccccc1)(c1ccccc1)c1ccccc1)NC(=O)[C@@H]1CCCN1C(=O)[C@H](CCCCNC(=O)OC(C)(C)C)NC(=O)[C@@H](N)[C@@H](C)OC(C)(C)C)C(=O)O, 21-membered ring, 24.0 h) was 29%.

Molecule CC[C@H](C)[C@@H]1NC(=O)[C@@H]2CCCN2C(=O)[C@H](CCCCNC(=O)OC(C)(C)C)NC(=O)[C@H](CSC(c2ccccc2)(c2ccccc2)c2ccccc2)NC(=O)[C@H](Cc2cn(C(=O)OC(C)(C)C)c3ccccc23)NC(=O)[C@H]([C@@H](C)OC(C)(C)C)NC(=O)[C@@H]2CCCN2C1=O [H-Cys(Trt)-Lys(Boc)-Pro-Ile-Pro-Thr(tBu)-Trp(Boc)-OH] has a ring closure, isolated yield (from CC[C@H](C)[C@H](NC(=O)[C@@H]1CCCN1C(=O)[C@H](CCCCNC(=O)OC(C)(C)C)NC(=O)[C@@H](N)CSC(c1ccccc1)(c1ccccc1)c1ccccc1)C(=O)N1CCC[C@H]1C(=O)N[C@H](C(=O)N[C@@H](Cc1cn(C(=O)OC(C)(C)C)c2ccccc12)C(=O)O)[C@@H](C)OC(C)(C)C, 21-membered ring) of 0%.

Work on Cc1c(C)c(S(=O)(=O)NC(=N)NCCC[C@@H]2NC(=O)[C@H](C)NC(=O)[C@H](CSC(c3ccccc3)(c3ccccc3)c3ccccc3)NC(=O)[C@H]([C@@H](C)OC(C)(C)C)NC(=O)[C@H](CSC(c3ccccc3)(c3ccccc3)c3ccccc3)NC2=O)c(C)c2c1OC(C)(C)C2 [H-Arg(Pbf)-Cys(Trt)-Thr(tBu)-Cys(Trt)-Ala-OH] yielded a ring closure, isolated yield (from Cc1c(C)c(S(=O)(=O)NC(=N)NCCC[C@H](N)C(=O)N[C@@H](CSC(c2ccccc2)(c2ccccc2)c2ccccc2)C(=O)N[C@H](C(=O)N[C@@H](CSC(c2ccccc2)(c2ccccc2)c2ccccc2)C(=O)N[C@@H](C)C(=O)O)[C@@H](C)OC(C)(C)C)c(C)c2c1OC(C)(C)C2, 15-membered ring, 24.0 h) of 16%.

For Cc1c(C)c(S(=O)(=O)NC(=N)NCCC[C@@H]2NC(=O)[C@H](C)NC(=O)[C@H](Cc3cn(C(=O)OC(C)(C)C)c4ccccc34)NC(=O)[C@H]([C@@H](C)OC(C)(C)C)NC(=O)[C@H](C)NC2=O)c(C)c2c1OC(C)(C)C2 [H-Arg(Pbf)-Ala-Thr(tBu)-Trp(Boc)-Ala-OH], the ring closure, isolated yield (from Cc1c(C)c(S(=O)(=O)NC(=N)NCCC[C@H](N)C(=O)N[C@@H](C)C(=O)N[C@H](C(=O)N[C@@H](Cc2cn(C(=O)OC(C)(C)C)c3ccccc23)C(=O)N[C@@H](C)C(=O)O)[C@@H](C)OC(C)(C)C)c(C)c2c1OC(C)(C)C2, 15-membered ring, 24.0 h) was 27%.

For Cc1c(C)c(S(=O)(=O)NC(=N)NCCC[C@@H]2NC(=O)[C@H](C)NC(=O)[C@H](Cc3cn(C(=O)OC(C)(C)C)c4ccccc34)NC(=O)[C@H]([C@@H](C)OC(C)(C)C)NC(=O)[C@@H]3CCCN3C2=O)c(C)c2c1OC(C)(C)C2 [H-Arg(Pbf)-Pro-Thr(tBu)-Trp(Boc)-Ala-OH], the ring closure, isolated yield (from Cc1c(C)c(S(=O)(=O)NC(=N)NCCC[C@H](N)C(=O)N2CCC[C@H]2C(=O)N[C@H](C(=O)N[C@@H](Cc2cn(C(=O)OC(C)(C)C)c3ccccc23)C(=O)N[C@@H](C)C(=O)O)[C@@H](C)OC(C)(C)C)c(C)c2c1OC(C)(C)C2, 15-membered ring, 24.0 h) was 0%.

Work on CC[C@H](C)[C@@H]1NC(=O)[C@H](COC(C)(C)C)NC(=O)[C@H](CCCCNC(=O)OC(C)(C)C)NC(=O)[C@H](Cc2ccccc2)NC(=O)[C@@H]2CCCN2C(=O)[C@H](CCCCNC(=O)OC(C)(C)C)NC(=O)[C@H](CSC(c2ccccc2)(c2ccccc2)c2ccccc2)NC(=O)[C@H](CCCCNC(=O)OC(C)(C)C)NC1=O yielded a ring closure, isolated yield (from CC[C@H](C)[C@H](NC(=O)[C@H](COC(C)(C)C)NC(=O)[C@H](CCCCNC(=O)OC(C)(C)C)NC(=O)[C@H](Cc1ccccc1)NC(=O)[C@@H]1CCCN1C(=O)[C@H](CCCCNC(=O)OC(C)(C)C)NC(=O)[C@H](CSC(c1ccccc1)(c1ccccc1)c1ccccc1)NC(=O)[C@@H](N)CCCCNC(=O)OC(C)(C)C)C(=O)O, 24-membered ring, 24.0 h) of 22%.

Molecule CC[C@H](C)[C@@H]1NC(=O)[C@@H]2CCCN2C(=O)[C@H](CCCCNC(=O)OC(C)(C)C)NC(=O)[C@H](CSC(c2ccccc2)(c2ccccc2)c2ccccc2)NC(=O)[C@H](Cc2cn(C(=O)OC(C)(C)C)c3ccccc23)NC(=O)[C@H]([C@@H](C)OC(C)(C)C)NC(=O)[C@@H]2CCCN2C1=O [H-Lys(Boc)-Pro-Ile-Pro-Thr(tBu)-Trp(Boc)-Cys(Trt)-OH] has a ring closure, isolated yield (from CC[C@H](C)[C@H](NC(=O)[C@@H]1CCCN1C(=O)[C@@H](N)CCCCNC(=O)OC(C)(C)C)C(=O)N1CCC[C@H]1C(=O)N[C@H](C(=O)N[C@@H](Cc1cn(C(=O)OC(C)(C)C)c2ccccc12)C(=O)N[C@@H](CSC(c1ccccc1)(c1ccccc1)c1ccccc1)C(=O)O)[C@@H](C)OC(C)(C)C, 21-membered ring) of 0%.

In the case of CC(C)C[C@@H]1NC(=O)[C@H](CSC(c2ccccc2)(c2ccccc2)c2ccccc2)NC(=O)[C@H](CC(C)C)NC(=O)[C@@H]2CCCN2C(=O)[C@H](CC(=O)NC(c2ccccc2)(c2ccccc2)c2ccccc2)NC(=O)[C@H](CC(C)C)NC(=O)[C@@H]2CCCN2C(=O)[C@H](CCC(=O)OC(C)(C)C)NC1=O [H-Leu-Glu(OtBu)-Pro-Leu-Asn(Trt)-Pro-Leu-Cys(Trt)-OH], the ring closure, isolated yield (from CC(C)C[C@H](NC(=O)[C@@H]1CCCN1C(=O)[C@H](CC(=O)NC(c1ccccc1)(c1ccccc1)c1ccccc1)NC(=O)[C@H](CC(C)C)NC(=O)[C@@H]1CCCN1C(=O)[C@H](CCC(=O)OC(C)(C)C)NC(=O)[C@@H](N)CC(C)C)C(=O)N[C@@H](CSC(c1ccccc1)(c1ccccc1)c1ccccc1)C(=O)O, 24-membered ring, 24.0 h) is reported as 23%.

Molecule Cc1c(C)c(S(=O)(=O)NC(=N)NCCC[C@@H]2NC(=O)[C@H](C)NC(=O)[C@H](C)NC(=O)[C@H]([C@@H](C)OC(C)(C)C)NC(=O)[C@H](CSC(c3ccccc3)(c3ccccc3)c3ccccc3)NC2=O)c(C)c2c1OC(C)(C)C2 [H-Arg(Pbf)-Cys(Trt)-Thr(tBu)-Ala-Ala-OH] has a ring closure, isolated yield (from Cc1c(C)c(S(=O)(=O)NC(=N)NCCC[C@H](N)C(=O)N[C@@H](CSC(c2ccccc2)(c2ccccc2)c2ccccc2)C(=O)N[C@H](C(=O)N[C@@H](C)C(=O)N[C@@H](C)C(=O)O)[C@@H](C)OC(C)(C)C)c(C)c2c1OC(C)(C)C2, 15-membered ring, 24.0 h) of 21%.

Molecule Cc1c(C)c(S(=O)(=O)NC(=N)NCCC[C@@H]2NC(=O)[C@H](C)NC(=O)[C@H](Cc3cn(C(=O)OC(C)(C)C)c4ccccc34)NC(=O)[C@H]([C@@H](C)OC(C)(C)C)NC(=O)[C@H](CSC(c3ccccc3)(c3ccccc3)c3ccccc3)NC2=O)c(C)c2c1OC(C)(C)C2 [H-Arg(Pbf)-Cys(Trt)-Thr(tBu)-Trp(Boc)-Ala-OH] has a ring closure, isolated yield (from Cc1c(C)c(S(=O)(=O)NC(=N)NCCC[C@H](N)C(=O)N[C@@H](CSC(c2ccccc2)(c2ccccc2)c2ccccc2)C(=O)N[C@H](C(=O)N[C@@H](Cc2cn(C(=O)OC(C)(C)C)c3ccccc23)C(=O)N[C@@H](C)C(=O)O)[C@@H](C)OC(C)(C)C)c(C)c2c1OC(C)(C)C2, 15-membered ring, 24.0 h) of 16%.

From article PMC9286623
